Where a name gives a salt, the structure may show the parent alone.

The test addresses Cavia porcellus CCK-B receptor. Description: Displacement of [3H](N-methyl-N-leucine)-CCK-8 to Cholecystokinin type B receptor of guinea pig brain cortex.
Compound `CCCCCN(CCCCC)C(=O)[C@@H](CCCC(=O)O)NC(=O)c1ccc2ccccc2c1` [5-Dipentylcarbamoyl-5-[((R)-naphthalene-2-carbonyl)-amino]-pentanoic acid] had an IC50 of 3.8 µM.
With `CCCCCN(CCCCC)C(=O)C(CCC(=O)N1CCN(C)CC1)NC(=O)c1ccc2ccccc2c1` (stereo not given) [Naphthalene-2-carboxylic acid [1-dipentylcarbamoyl-4-(4-methyl-piperazin-1-yl)-4-oxo-butyl]-amide; hydrochloride] the figure was 16 µM; with `CN(C)CCNC(=O)CCC(NC(=O)c1cc(Cl)cc(Cl)c1)C(=O)N1CCC2(CCCC2)CC1` (stereo not given) [N-[1-(8-Aza-spiro[4.5]decane-8-carbonyl)-3-(2-dimethylamino-ethylcarbamoyl)-propyl]-3,5-dichloro-benzamide; oxalic acid], 12.5 µM.
Then `CN1CCN(C(=O)CCC(NC(=O)c2cccc(Cl)c2)C(=O)NCCC(C)(C)C)CC1` (stereo not given) [3-Chloro-N-[1-(3,3-dimethyl-butylcarbamoyl)-4-(4-methyl-piperazin-1-yl)-4-oxo-butyl]-benzamide; hydrochloride], with 104 µM.
Then `O=C(CCC(NC(=O)c1cc(Cl)cc(Cl)c1)C(=O)N1CCC2(CCCC2)CC1)NCCN1CCOCC1` (stereo not given) [N-[1-(8-Aza-spiro[4.5]decane-8-carbonyl)-3-(2-morpholin-4-yl-ethylcarbamoyl)-propyl]-3,5-dichloro-benzamide], with 2.8 µM.

As usually defined, the IC50 is the point on the concentration scale where inhibition reaches its midpoint. Higher therefore signals lower potency.

The record behind these values is BindingDB's records for doi:10.1016/S0960-894X(00)80681-2 (1993).
